# Entries after “also recorded” stand apart in the source; their conditions may differ.
# How the values were obtained:
# RSV [1] = assay: Time of addition assay; format: cell-based, Human Respiratory Syncytial Virus (RSV); conditions: 20 μM
# Experimental: After each incubation period, the monolayers were washed two times with maintenance medium and incubated with fresh medium until 10 h post-infection. Then, after 36 h the development of cytopathic effect (CPE) was evaluated microscopically and each sample was collected, centrifuged and frozen at −80°C. The viral titer was determined by plaque assay (or ELISA).
# RSV [2] = assay: Cell pretreatment assay; format: cell-based, Human Respiratory Syncytial Virus (RSV); conditions: Vero-76 pretreated with 20 μM, 2 h at 4°C; titer 3 days post infection
# Experimental: After removal of the compound and two gentle washes, cells were infected with RSV. After virus adsorption to cells, the inoculum was removed and the cells were then overlaid with medium, incubated for 3 days at 37°C, and then virus titers were determined by plaque assay.
# HIV-1IIIB = assay: microbe, parasite or virus in culture; format: cell-based, Human Immunodeficiency Virus type-1 (HIV-1); conditions: Human immunodeficiency virus 1, MT4, read-out: EC50 HIV-1IIIB
# RSV [3] = assay: microbe, parasite or virus in culture; format: cell-based, Human Respiratory Syncytial Virus (RSV) strain A2; conditions: human respiratory syncytial virus, Vero 76, read-out: EC50 RSV
# CV-B5 = assay: microbe, parasite or virus in culture; format: cell-based, Human Enterovirus B [coxsackie type B5 (CV-B5)]; conditions: Enterovirus B, CVB5, Vero 76, read-out: EC50 CV-B5
# RSV [4] = assay: Antigen reduction assay (ELISA) in RSV-infected Vero-76 cells
# YFV = assay: microbe, parasite or virus in culture; format: cell-based; conditions: Yellow fever virus, BHK, read-out: EC50 YFV
# [5] = Cytotoxicity, MTT method, BHK cells; conditions: Syrian hamster (Mesocricetus auratus)
# [6] = Cytotoxicity in continuous cell lines (summary statement); format: cell-based; conditions: continuous cell lines from different organs and species (Table 1, Table S2); read-out: CC50 in most continuous cell lines
# Experimental: Exponentially growing MT-4 cells were seeded at an initial density of 4x10^5 cells/mL in 96-well plates containing RPMI-1640 medium, supplemented with 10% fetal bovine serum (FBS), 100 units/mL penicillin G and 100 μg/mL streptomycin. MDBK, Hep-2 and BHK cells were seeded at an initial density of 6 × 10^5, 5 × 10^5, and 1 × 10^6 cells/mL, respectively, in 96-well plates containing Minimum Essential Medium with Earle's salts (MEM-E), L-glutamine, 1 mM sodium pyruvate and 25 mg/L kanamycin, supplemented with 10% horse serum (MDBK) or 10% fetal bovine serum (FBS) (BHK; Hep-2). Vero-76 cells were seeded at an initial density of 5 × 10^5 cells/mL in 96-well plates containing in Dulbecco's Modified Eagle Medium (D-MEM) with L-glutamine and 25 mg/L kanamycin, supplemented with 10% FBS. Cell cultures were then incubated at 37°C in a humidified, 5% CO2 atmosphere, in the absence or presence of serial dilutions of test compounds. The test medium used for cytotoxic and antiviral assay contained 1% of the appropriate serum. Cell viability was determined after 72, 96, or 120 h at 37°C by the MTT method for MT-4, MDBK, Hep-2, BHK and Vero-76 cells (Budge et al., [2004]).
# [7] = Cytotoxicity, MTT method, Vero-76 cells; conditions: African green monkey (Cercopithecus aethiops)
# RSV A2 [8] = assay: Syncytium reduction assay; conditions: Vero-76, added 8 h p.i. at 50, 10, 2 μM, assessed 72 h p.i.
# RSV strain B1 cp-52 = assay: microbe, parasite or virus in culture; format: cell-based; conditions: human respiratory syncytial virus, Vero 76, read-out: 50% inhibitory concentration RSV cp-52
# BVDV = assay: microbe, parasite or virus in culture; format: cell-based; conditions: Bovine viral diarrhea virus isolates and strains, MDBK, read-out: EC50 BVDV
# RSV virions = assay: Virucidal activity assay; format: cell-based, Human Respiratory Syncytial Virus (RSV); conditions: 20 μM, 4°C or 37°C, 1 h
# Experimental: The mixture without test sample was used as the control. At the end of incubation period, samples were serially diluted in media and titers were determined on Vero-76 cells at high dilutions, at which the compound was not active. Virus titers were determined by plaque assay in Vero-76 cells.
# [9] = Cytotoxicity, MTT method, MT-4 cells; conditions: human
# RSV A2 [10] = assay: Immunofluorescence attachment assay; format: cell-based, Human Respiratory Syncytial Virus (RSV); conditions: 4°C, Vero-76; 20 μM 10d, 6 μg/mL dextran sulfate, 5 μM 6-azauridine
# Experimental: Compounds' inhibitory effects on virus-cell binding event was measured by immunofluorescence performed according to the method described previously with some modifications (Maric et al., [2011]). […] After this incubation period, the monolayers were washed three times in cold PBS in order to remove unbound viral particles and then were fixed in paraformaldehyde 4%. The presence of bound virus was detected by indirect immunofluorescence. […] Abcam, Cambridge, United Kingdom). Cells were then washed three times in PBS-Tween-100 and incubated with a 1:500 dilution of an Alexa Fluor 488-labeled anti-mouse secondary antibody (Molecular Probes, Eugene, Oreg.). After a series of washes in PBS-Tween-100, cells were mounted with Vectashield (Vector Laboratories, Burlingame, CA) containing 4′,6-diamidino-2-phenylindole (DAPI) and images of each well were captured with the ZOE Fluorescent Cell Imager (Biorad).
# Reo-1 = assay: microbe, parasite or virus in culture; format: cell-based, Reovirus type-1 (Reo-1); conditions: Reovirus sp., BHK, read-out: EC50 Reo-1
# in vitro [11] = conditions: cattle (Bos taurus)
# Sb-1, VSV, VV, HSV-1 = assay: organism not typed; format: cell-based; conditions: Vero 76, read-out: EC50 Sb-1, VSV, VV, HSV-1
# RSV F-protein = conditions: read-out: experimental IC50; ref Battles et al., [2016]; cited from earlier work
# in vitro [12] = conditions: African green monkey (Cercopithecus aethiops)
smiles,measurement,setting,value
"O=C(Nc1ccc(-n2nc3cc(Cl)c(Cl)cc3n2)cc1)NC1CCCCC1 [10d, 1-[4-(5,6-dichloro-2H-benzo[d][1,2,3]triazol-2-yl)phenyl]-3-cyclohexylurea]","inhibition of RSV, addition at later times","RSV [1]; m.o.i. 1, 4–10 h after infection",failed to exhibit significant antiviral activity
same,"inhibition of RSV, addition in early phases","RSV [1]; m.o.i. 1, during the 2 h of infection (t = 0) and immediately after",most efficient inhibition was observed in early phases of infection
same,inhibition of RSV infection after cell pretreatment,RSV [2],failed to inhibit RSV infection; also recorded: failed to prevent viral infection
same,EC50,HIV-1IIIB,> 100 µM
same,EC50,RSV [3],2 µM
same,EC50,CV-B5,> 90 µM
same,reduction of viral antigen,"RSV [4]; ELISA, at 20 μM",80%
same,EC50,"RSV [4]; human respiratory syncytial virus, Vero 76, read-out: EC50 viral antigen reduction",5 µM
same,EC50,YFV,> 71 µM
same,CC50,[5],71 µM
same,CC50,[6],< 70 µM
same,CC50 at 5 days,[7],90 µM
same,syncytium formation,RSV A2 [8],the number and the size of syncytia decreased in a dose-dependent manner; also recorded: both size and number of syncytia did not increase; also recorded: effective in reducing both syncytia area and number at a concentration of 50 μM; also recorded: dose-dependent reduction of syncytia area and number
same,IC50,RSV strain B1 cp-52,7 ± 1 µM
same,EC50,BVDV,> 100 µM
same,virucidal effect,RSV virions,negligible
same,melting point,,> 300 °C
same,CC50,[9],> 100 µM
same,inhibition of viral attachment,RSV A2 [10],does not inhibit viral attachment; also recorded: not able to block viral binding to cells
same,EC50,Reo-1,> 71 µM
same,CC50,in vitro [11],> 100 µM
same,EC50,"Sb-1, VSV, VV, HSV-1",> 90 µM
Cc1ccc(CCCO)c(NCc2ccc3nc(NCCCN4CCOCC4)n(Cc4nc(C)ccc4O)c3c2)c1 [TMC353121],IC50,RSV F-protein,0.0087 µM
"NC(=O)c1ncn([C@@H]2O[C@H](CO)[C@@H](O)[C@H]2O)n1 [ribavirin, reference compound]",EC50,RSV [3],7 µM
same,CC50 at 5 days,in vitro [12],> 100 µM
